From patent US20160324992A1, “IDENTIFICATION AND TREATMENT OF VULNERABLE PLAQUES” (OTTAWA HEART INSTITUTE RESEARCH CORPORATION, priority 2015, published 2016)
Values joined by “and” are separate entries in the source; they are usually repeats but may differ in a detail not shown here. Equal entries are not always repeated.

System: ApoE−/− mice with established atherosclerosis
Assay: Atherosclerosis study: time-release pellets in Western diet fed ApoE−/− mice
Format: in vivo, mouse
Description: Atherosclerosis Studies. All animal experiments were performed in accordance with the Animal Care and Use Committee, University of Ottawa, Canada. Eight week old Apo E^−/− mice (total n=17 mice) were fed an adjusted calories diet (21% fat; 0.2% cholesterol, Harlan Teklad) for 4 weeks to induce atherosclerotic progression. Mice were then injected with time-release placebo or Nec-1s tablets (2 mg/kg/day), which were synthesized by Innovative Research of America, USA. Mice were euthanized after 6 weeks of treatment, perfused with saline and aortic roots were embedded in OCT medium and frozen. Aortic roots were sectioned (10 μm) and stained with hematoxylin and eosin for lesion area and necrotic core quantification, and a minimum of 10 sections per animal were measured across the length of the entire aortic root. For en face aortic lesion quantifications, aortas were dissected removing all branching vessels down to the femoral bifurcation and then sliced ventrally and images of aortas were digitally captured using ImagePro™. Lesion areas within the entire length of the aorta were quantified using Image J™ and expressed relative to the total aortic surface area. Immunohistochemistry for vascular smooth muscle cells was performed using a primary antibody for a-smooth muscle actin (monoclonal, Sigma) conjugated to alkaline phosphatase and visualized using SigmaFAST Red (Sigma). Statistical significance between the two groups were analyzed using Students' t-test (p<0.05).
Atherosclerosis Studies. All animal experiments were performed in accordance with the Animal Care and Use Committee, University of Ottawa, Canada. Eight week old apoE−/− mice (total n=17 mice) were fed an adjusted calories diet (21% fat; 0.2% cholesterol, Harlan Teklad) for 4 weeks to induce atherosclerotic progression. Mice were then injected with time-release placebo or stable Necrostatin-1 (Nec-1)15 tablets (2 mg/kg/day), which were synthesized by Innovative Research of America, USA. Mice were euthanized after 6 weeks of treatment, perfused with saline and aortic roots were embedded in OCT medium and frozen. Aortic roots were sectioned (10 μm) and stained with hematoxylin and eosin for lesion area and necrotic core quantification, and a minimum of 10 sections per animal were measured across the length of the entire aortic root. For en face aortic lesion quantifications, aortas were dissected removing all branching vessels down to the femoral bifurcation and then sliced ventrally and images of aortas were digitally captured using ImageProTM. Lesion areas within the entire length of the aorta were quantified using Image JTM and expressed relative to the total aortic surface area. Immunohistochemistry to visualize macrophages and smooth muscle cells was performed using primary antibodies to CD68 (rat monoclonal, Serotec) or phosho-MLKL (rabbit polyclonal, Abcam) with a secondary conjugated to biotin and α-smooth muscle actin (monoclonal, Sigma) conjugated to alkaline phosphatase and visualized using DAB or SigmaFAST Red (Sigma), respectively. Image J was used to quantify positive staining area and statistical significance between the two groups were analyzed using Students' t-test (p<0.05)

`CN1C(=O)C(Cc2c[nH]c3ccccc23)NC1=S` (stereo not shown) [Nec-1, necrostatin-1] was tested, and the “body weight (in words)” value (2 mg/kg/day, 6 weeks, data not shown) was “not affected”, the “CD68+ macrophage area, % of lesion area” value (2 mg/kg/day, 6 weeks, placebo 34.4%±3.2, p=ns) was 43.5%±3.7 and the “increase of smooth muscle actin area within the aortic sinus” value (2 mg/kg/day, 6 weeks, vs placebo) was 70%. The “atherosclerotic lesion area versus placebo (in words)” value (Western diet 4 weeks then 2 mg/kg/day for 6 weeks) was “reduced lesion area in the aortic sinus and aorta”, the “reduction of aortic root lesion area compared to controls” value (Western diet, 2 mg/kg/day, 6 weeks) was 27% and the “aortic root lesion area” value (Western diet, 2 mg/kg/day, 6 weeks, placebo 0.50±0.03 mm^2) was 0.37±0.05 mm^2. The “en face lesion area as a % of total aorta area” value (Western diet, 2 mg/kg/day, 6 weeks, placebo 9.9±0.9%) was 3.1±0.3%, the “reduction of en face lesion burden compared to placebo” value (Western diet, time-release pellet 2 mg/kg/day, 6 weeks, ascending and descending aorta) was 68% and the “reduction of pMLKL positive area compared to placebo controls” value (aortic sinus lesions, 2 mg/kg/day, 6 weeks) was 63%. For the same molecule, the “reduction of lesion necrotic core area compared to placebo” value (aortic sinus, 2 mg/kg/day, 6 weeks) was 62.6% and 62%.
